Data published in publication PMC8042727, “Apoptosis-like cell death upon kinetoplastid induction by compounds isolated from the brown algae Dictyota spiralis” (Parasites & Vectors, 2021).

Assays:
Assay type in all cases: cell-based
[1] = test system: Leishmania amazonensis amastigotes; assay: Anti-amastigotes assay (intra-macrophagic stage, J774A.1); settings: for Selectivity index: CC50 murine macrophages / IC50 amastigote; for IC50: J774.A1, Leishmania amazonensis, intracellular in J774A.1, read-out: IC50: amastigote
Procedure: The three molecules 1-3 were tested against the intra-macrophagic stage of L. amazonensis as previously described. Briefly, in a 96-well, flat-bottom plate, macrophages of the J774A.1 cell line (American Type Culture Collection #TIB-67) were cultured at a density of 2 × 10^5 cells/ml in RPMI 1640 medium supplemented with 10% heat-inactivated FBS and incubated for 1 h at 37 °C in a 5% CO2 atmosphere to allow almost complete attachment of the cells. The macrophages were then infected with L. amazonensis promastigotes in the stationary phase (7-day-old culture) at a ratio of 1:10 (macrophage:parasite) at a concentration of 2 × 10^6 cells/ml and incubated at 37 °C in 5% CO2 for 24 h. Wells were washed with medium to remove external promastigotes. Thereafter, the infected macrophages were treated with the serially diluted concentrations of the pure compounds for 24 h, following which the medium was removed carefully and replaced by 30 μl of new medium containing 0.05% sodium dodecyl sulfate and the plate shaken for 30 s. Subsequently, 170 μl of Schneider’s medium was added to each well to give a final volume of 200 μl, and 20 μl of AlamarBlue® was added to the plate; the plate was then incubated at 26 °C for 72 h, following which the plates were analyzed using the same protocol as for the promastigotes assay.

Leishmania amazonensis = assay: Oxidative stress / ROS accumulation (CellROX Deep Red); settings: L. amazonensis, IC90, 24 h
Procedure: The reagent used for this assay was a fluorogenic probe to measure cellular oxidative stress upon oxidation by reactive oxygen species (ROS). To perform the test, cells were incubated with the compounds to be tested, at IC90 for 24 h. The cells were centrifuged and resuspended in a volume of 50 μl, following which CellROX™ Deep Red oxidative stress reagent (Thermo-Fisher Scientific) was added to 96-well plates at […]. The plates were then incubated for 30 min at 37 °C. After incubation, the results were analyzed by cell imaging using the Evos cell imaging system. Cells treated with different compounds were compared with untreated control cells and the positive control. Fluorescence intensity was also measured using the Enspire multimode plate reader at excitation/emission wavelengths of 640/665 nm. Accumulation ROS at the cellular level is a good indicator of oxidative stress and is precursor to a chain reaction leading damage at the cellular level to proteins, nucleic acids, lipids, membrane and organelles. These cellular alterations can lead to activation of the cell death process. As such, ROS play an important role in cell signaling and the apoptosis pathway. An intracellular excess of ROS can be detected by the cell-permeable CellROX™ Deep Red reagent, which is a fluorogenic ROS sensor.

Trypanosoma cruzi = assay: ATP level (CellTiter-Glo); settings: T. cruzi, IC90, 24 h, relative to negative control
Procedure: The CellTiter-Glo® luminescent cell viability assay (Promega, WI, USA) was used to quantify the adenosine triphosphate (ATP) concentration. Cells of the kinetoplastid strains (for both L. amazonensis [2 × 10^6 cells/ml] and T. cruzi [5 × 10^5cells/ml]) were incubated for 24 h with the compounds to be tested, at IC90 and 26 °C. After incubation, the cells were centrifuged and resuspended in 100 μl. To this volume, we added 100 μl of the reactive in white 96-well plates. After incubation, the luminescence signal was measured using the Enspire multimode plate reader. The decrease in ATP level was expressed as a percentage relative to the negative control. Miltefosine and benznidazole were tested as the positive control for L. amazonensis and T. cruzi, respectively.

[2] = test system: Leishmania amazonensis promastigotes; assay: Anti-promastigotes assay (AlamarBlue, 72 h); settings: for IC50: 72 h, read-out: IC50: promastigote; for IC90: nonlinear regression of AlamarBlue curve, read-out: IC90 Leishmania amazonensis: promastigote
Procedure: Experiments including in vitro activity assays of isolated compounds 1–3 were performed against the promastigote and amastigote stages of Leishmania amazonensis (MHOM/BR/77/LTB0016) and the epimastigote stage of Trypanosoma cruzi (Y strain). Promastigotes of L. amazonensis were cultured in Schneider’s medium (Sigma-Aldrich, St. Louis, MO, USA). Typanosoma cruzi strain Y was cultured in liver Infusion tryptose (LIT) medium.
The bioassay was performed using the AlamarBlue® method as previously described. Promastigotes of L. amazonensis were grown at 26 °C in RPMI 1640 modified medium (Gibco BRL Life Technologies Inc., Gaithersburg, MD, USA) and supplemented with 10% heat-inactivated fetal bovine serum (FBS). Cultures in the logarithmic phase were seeded in sterilized 96-well microtiter plates (Corning™, Corning, NY, USA) (10^6 parasites/ml) containing the samples dissolved in 1% DMSO at the suitable concentration to be tested in serial dilutions, and Leishmania medium (RPMI 1640) was used to reach a final volume of 200 μl per well; then 10% of AlamarBlue® was added to the entire plate. After an incubation of 72 h, the plate was checked visually using an inverted microscope, then analyzed using an Enspire multimode plate reader (PerkinElmer, Inc., Waltham, MA, USA) at excitation and emission wavelengths of 570 and 585 nm, respectively. Dose–response curves were plotted, and the concentration at which one half of the maximal inhibitory effect was obtained (IC50) was determined. The analyses were performed in triplicate.
Hoechst dye is a blue-fluorescent dye that stains condensed chromatin of apoptotic cells. To detect DNA condensation, the chromatin condensation/dead cell apoptosis kit was used (Invitrogen, Thermo Fisher Scientific, Waltham, MA, USA). Cells were incubated in the presence of the compounds to be tested at IC90. The IC90 values were determined using nonlinear regression of the AlamarBlue® curve. After 24 h of incubation, cells were harvested and resuspended in medium, following which 1 μl of Hoechst 33342 stock solution was added to parasites and incubated for 20 min. Results were analyzed by cell imaging using the Evos FL cell imaging system (Thermo Fisher Scientific). The experiments were repeated using a double-stain apoptosis detection kit (Hoechst 33342/PI; Thermo Fisher Scientific). […] A positive control was also tested: miltefosine (L. amazonensis) and benznidazole (T. cruzi).

[3] = test system: Leishmania amazonensis promastigotes; assay: Plasma membrane permeability assay (SYTOX Green); settings: L. amazonensis, IC90, up to 6 h, compared to Triton X-100 (100%)
Procedure: This assay was performed to evaluate the cell’s membrane permeability. Following the manufacturer’s recommendations, promastigotes of L. amazonensis and epimastigotes of T. cruzi were incubated in phosphate saline buffer in the presence of 1 μM of SYTOX® Green nucleic acid stain (Life Technologies, Waltham, MA, USA) and the IC90 of the different test compounds to be tested. Variation in fluorescence was measured every 15 min for 6 h using the Enspire multimode plate reader at excitation/emission wavelengths of 485/520. The percentage of relative permeabilization was calculated in reference to complete permeabilization realized by adding Triton X-100 (Sigma-Aldrich). In addition, both L. amazonensis and T. cruzi cells were incubated for 24 h with compounds 1–3, miltefosine and benznidazole, and images were captured using the Evos cell imaging system.
One of the detectable cellular events of a necrotic cell death is the rupture of the plasma membrane. This event can be detected by evaluating plasma membrane permeabilization. We performed the SYTOX Green dye assay to detect effect of compounds 1–3 on membrane permeability. This green-fluorescence dye has a high affinity for DNA. Triton X-100 was used as a positive control in light of its known effect to cause 100% membrane permeabilization. Values of fluorescence were measured each 15 min for 6 h.

IC50 [1] [µM]	IC50 [2] [µM]	IC90 [2] [µM]	SMILES	Selectivity index [1]	ROS accumulation (fluorescence vs negative control) (Leishmania amazonensis)	decrease in ATP concentration (Trypanosoma cruzi) [%]	percentage of membrane permeabilization [3] [%]
2.03 ± 0.22	18.9 ± 0.42	34.9	C=C1CC[C@@H]([C@@](C)(O)CCC=C(C)C)[C@@H](O)[C@@H]2C(C)=CC[C@@H]12 [Compound 2, dictyol E]	25.56	slight increase in fluorescence but the increase was not significant	> 95	< 20
3.88 ± 0.17	–	74.9	C=C(C)[C@H]1CC[C@]2(C)C[C@@H]3O[C@@]3(C)CC/C=C(\C)CC[C@@H]12 [Compound 3, 3,4-epoxy-7,18-dolabelladiene]	18.02	more remarkable	> 95	35
0.97 ± 0.13	18.9 ± 5.28	39.5	CC(C)=CCC[C@](C)(O)[C@@H]1CC[C@@H](C)[C@@H]2CC=C(C)[C@H]2[C@@H]1O [Compound 1, pachydictyol C]	37.76	more remarkable	> 70	< 20
